The results in this text go back to ChEMBL document CHEMBL4699570, “Design, synthesis and biological evaluation of novel c-Met/HDAC dual inhibitors” (Bioorg Med Chem Lett, 2020).

For one assay, the system named is MCF7. Kind of assay: Antiproliferative against human MCF-7 cells assessed as reduction in cell viability by MTT assay. The assay is classed as functional, cell-based. Background: Formazan colour is commonly taken as a measure of viable cells.
The next assay has as its system A549. Kind of assay: Antiproliferative against human A549 cells assessed as reduction in cell viability by MTT assay. The assay is classed as functional, cell-based.
The target in assay [1] is T1, Histone deacetylase 1 (Homo sapiens, UniProt Q13547). The conditions noted are these: dose 100.0 nM.
T1 sequence (Q13547 whole entry): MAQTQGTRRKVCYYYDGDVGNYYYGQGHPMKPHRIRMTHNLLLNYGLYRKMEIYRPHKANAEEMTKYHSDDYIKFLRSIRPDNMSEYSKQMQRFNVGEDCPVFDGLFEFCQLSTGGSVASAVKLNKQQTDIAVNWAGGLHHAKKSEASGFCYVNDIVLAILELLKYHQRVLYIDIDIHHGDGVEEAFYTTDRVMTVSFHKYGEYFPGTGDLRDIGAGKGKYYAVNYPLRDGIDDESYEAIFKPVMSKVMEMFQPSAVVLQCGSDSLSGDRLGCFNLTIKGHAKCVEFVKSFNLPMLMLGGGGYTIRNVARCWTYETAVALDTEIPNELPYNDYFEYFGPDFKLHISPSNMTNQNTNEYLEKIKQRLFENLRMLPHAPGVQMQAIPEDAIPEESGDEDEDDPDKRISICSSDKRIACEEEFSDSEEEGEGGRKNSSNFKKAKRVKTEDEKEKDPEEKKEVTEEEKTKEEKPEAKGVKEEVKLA
Description: Inhibition of HDAC1 (unknown origin) at 100 nM relative to control
The target in assay [2] is T2, Hepatocyte growth factor receptor (Homo sapiens, UniProt P08581). The conditions noted are these: dose 100.0 nM.
T2 sequence (P08581 whole entry): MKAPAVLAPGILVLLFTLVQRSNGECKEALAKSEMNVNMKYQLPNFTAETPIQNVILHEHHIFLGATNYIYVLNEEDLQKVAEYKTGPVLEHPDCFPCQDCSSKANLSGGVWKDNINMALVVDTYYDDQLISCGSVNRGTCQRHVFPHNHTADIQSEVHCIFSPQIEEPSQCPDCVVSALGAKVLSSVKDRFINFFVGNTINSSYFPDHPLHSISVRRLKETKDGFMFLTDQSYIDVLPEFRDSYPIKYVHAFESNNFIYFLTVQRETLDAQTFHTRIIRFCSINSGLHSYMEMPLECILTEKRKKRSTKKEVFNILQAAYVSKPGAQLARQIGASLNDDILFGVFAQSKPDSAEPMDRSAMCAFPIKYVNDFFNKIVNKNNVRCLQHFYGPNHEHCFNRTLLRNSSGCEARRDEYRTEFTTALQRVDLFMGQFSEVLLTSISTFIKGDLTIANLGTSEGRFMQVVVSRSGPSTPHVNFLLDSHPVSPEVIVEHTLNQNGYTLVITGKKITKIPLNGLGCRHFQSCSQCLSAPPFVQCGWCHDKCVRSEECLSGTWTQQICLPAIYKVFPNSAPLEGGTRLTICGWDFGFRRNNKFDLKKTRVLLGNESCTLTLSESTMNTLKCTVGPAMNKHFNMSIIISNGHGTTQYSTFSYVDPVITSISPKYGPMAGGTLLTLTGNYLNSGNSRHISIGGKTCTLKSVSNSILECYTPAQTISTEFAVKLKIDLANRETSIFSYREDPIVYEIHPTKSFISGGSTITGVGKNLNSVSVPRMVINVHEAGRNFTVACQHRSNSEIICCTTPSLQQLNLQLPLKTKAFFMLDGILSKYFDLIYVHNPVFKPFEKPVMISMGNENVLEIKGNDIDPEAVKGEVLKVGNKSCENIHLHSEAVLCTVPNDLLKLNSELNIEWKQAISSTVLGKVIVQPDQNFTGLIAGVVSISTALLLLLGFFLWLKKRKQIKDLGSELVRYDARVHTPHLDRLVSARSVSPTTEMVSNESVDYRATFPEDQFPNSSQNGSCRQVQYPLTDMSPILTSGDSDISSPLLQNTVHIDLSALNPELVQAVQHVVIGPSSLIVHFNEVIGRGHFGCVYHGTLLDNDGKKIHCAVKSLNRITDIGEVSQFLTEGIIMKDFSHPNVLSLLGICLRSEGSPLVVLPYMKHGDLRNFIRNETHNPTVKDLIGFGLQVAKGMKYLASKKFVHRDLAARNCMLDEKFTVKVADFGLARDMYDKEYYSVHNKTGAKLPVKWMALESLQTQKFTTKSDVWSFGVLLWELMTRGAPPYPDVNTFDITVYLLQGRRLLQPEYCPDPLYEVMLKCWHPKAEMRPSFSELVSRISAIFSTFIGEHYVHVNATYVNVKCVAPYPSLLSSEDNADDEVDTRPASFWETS
Description: Inhibition of c-MET (unknown origin) at 100 nM relative to control
Assay [3] concerns the target T1, Histone deacetylase 1. Kind of assay: Inhibition of HDAC1 (unknown origin).
The target in assay [4] is T2, Hepatocyte growth factor receptor. Kind of assay: Inhibition of c-MET (unknown origin).

The IC50 is the concentration that inhibits the measured activity by half. One may read the inhibition as the relative decrease from the control value, in per cent. A high value points to a strong effect. With `COc1cc2c(Oc3ccc(NC(=O)NNC(=O)c4cccc(C)c4)cc3)ccnc2cc1OCCCCCCC(=O)NO`, the IC50 with MCF7 was 5830 nM; in the assay on A549, 8190 nM. The inhibition against Histone deacetylase 1 [1] was 67.6%; in assay [2], 29.9%.
Turning to `COc1ccccc1NC(=O)Nc1ccc(Oc2ccnc3cc(OCCCCCCC(=O)NO)c(OC)cc23)cc1`, the IC50 in the assay with MCF7 was found to be 6280 nM; in the assay with A549, 16200 nM. This molecule also showed an inhibition in assay [2] of 31.9%.
Regarding `COc1cc2c(Oc3ccc(NC(=O)Nc4ccccc4Cl)cc3)ccnc2cc1OCCCCCCC(=O)NO`, the figures for the IC50 with MCF7 and in the assay with A549 were 2780 nM and 1910 nM, respectively. Also, the inhibition against Histone deacetylase 1 [1] stood at 45.2%; in assay [2] it was 30.4%.
`COc1cc2c(Oc3ccc(NC(=O)Nc4ccc(C(F)(F)F)cc4Cl)cc3)ccnc2cc1OCCCCCCC(=O)NO`: the IC50 against Histone deacetylase 1 [3] is 148 nM; in assay [4], 41.2 nM; in the assay with MCF7, 500 nM; in the assay with A549, 970 nM. Further, the inhibition turned out to be 28.1% against Histone deacetylase 1 [1] and 93.1% in assay [2].
`COc1cc2c(Oc3ccc(NC(=O)NCCc4ccccc4)cc3)ccnc2cc1OCCCCCCC(=O)NO`: the half-inhibitory concentration (IC50) with MCF7 is 4120 nM; in the assay on A549, 9040 nM. The inhibition against Histone deacetylase 1 [1] is 88%; in assay [2], 14.3%.
For `COc1cc2c(Oc3ccc(NC(=O)N/N=C/c4ccccc4F)cc3)ccnc2cc1OCCCCCCC(=O)NO`, the IC50 was found to be 1610 nM with MCF7 and 7780 nM with A549. Also, the inhibition on Histone deacetylase 1 [1] came to 10.4%; in assay [2] it was 81.5%.
For `COc1cc2c(Oc3ccc(NC(=O)Nc4ccccc4F)cc3)ccnc2cc1OCCCCCCC(=O)NO`, the IC50 against Histone deacetylase 1 [3] was 131 nM; in assay [4], 39.2 nM; in the assay on MCF7, 660 nM; with A549 it was 870 nM. The results for the inhibition (against Histone deacetylase 1 [1]; in assay [2]) were 32.1% and 95.5%, respectively.
Turning to `COc1cc2nccc(Oc3ccc(NC(=O)C4(C(=O)Nc5ccc(F)cc5)CC4)cc3)c2cc1OC` [CABOZANTINIB], the IC50 in the assay on MCF7 was found to be 5400 nM; in the assay with A549 it was 7210 nM. In addition, the inhibition on Histone deacetylase 1 [1] amounted to 20.9%.
On to `COc1cc2c(Oc3ccc(NC(=O)Nc4ccccc4C(F)(F)F)cc3)ccnc2cc1OCCCCCCC(=O)NO`, for which the concentration for half-maximal inhibition (IC50) worked out at 1080 nM in the assay with MCF7 and 5280 nM with A549. Further, the inhibition against Histone deacetylase 1 [1] came out at 76.6%; in assay [2], 28.6%.
The like results for `COc1cc2c(Oc3ccc(NC(=O)Nc4cccc(C)c4)cc3)ccnc2cc1OCCCCCCC(=O)NO` were, in that order, 1240 nM, 2010 nM, 66.6% and 25.7%.
Take `COc1cc2c(Oc3ccc(NC(=O)Nc4ccc(OC(F)(F)F)cc4)cc3)ccnc2cc1OCCCCCCC(=O)NO`: the figures for the IC50 in the assay on MCF7 and in the assay on A549 were 3200 nM and 3130 nM, respectively. In addition, the inhibition amounted to 11.7% against Histone deacetylase 1 [1] and 29.8% in assay [2].
Taken in the same sequence, the figures for `COc1cc2c(Oc3ccc(NC(=O)NNC(=O)c4ccccc4)cc3)ccnc2cc1OCCCCCCC(=O)NO` were 2450 nM, 2820 nM, 34.4% and 38.5%.
The like results for `COc1cc2c(Oc3ccc(NC(=O)N/N=C/c4ccc(F)cc4)cc3)ccnc2cc1OCCCCCCC(=O)NO` were, in that order, 1360 nM, 4920 nM, 56.1% and 24.2%.
Taken in the same sequence, the figures for `COc1cc2c(Oc3ccc(NC(=O)NNC(=O)c4ccccc4F)cc3)ccnc2cc1OCCCCCCC(=O)NO` were 3600 nM, 2420 nM, 28.7% and 81.4%.
For `COc1cc2c(Oc3ccc(NC(=O)NC4CCCCC4)cc3)ccnc2cc1OCCCCCCC(=O)NO`, the IC50 at Histone deacetylase 1 [3] came out at 45.2 nM; in assay [4], 21.4 nM; in the assay on MCF7, 600 nM; with A549, 850 nM. The inhibition amounted to 14.1% against Histone deacetylase 1 [1] and 38% in assay [2].
Consider `COc1cc2c(Oc3ccc(NC(=O)Nc4ccccc4)cc3)ccnc2cc1OCCCCCCC(=O)NO`, for which the half-maximal inhibitory concentration (IC50) against Histone deacetylase 1 [3] stood at 75 nM; in assay [4], 17 nM; in the assay on MCF7, 1040 nM; with A549, 1650 nM. Also, the inhibition at Histone deacetylase 1 [1] was determined as 23.1%; in assay [2], 48%.
As to `COc1cc2c(Oc3ccc(NC(=O)Nc4ccc(C)cc4C)cc3)ccnc2cc1OCCCCCCC(=O)NO`, the IC50 turned out to be 3430 nM in the assay with MCF7 and 5490 nM in the assay with A549. For the same molecule, the inhibition at Histone deacetylase 1 [1] worked out at 26.4%; in assay [2], 44.7%.
Consider `COc1cc2c(Oc3ccc(NC(=O)N/N=C/c4ccccc4)cc3)ccnc2cc1OCCCCCCC(=O)NO`, for which the IC50 is 610 nM in the assay with MCF7 and 3700 nM in the assay on A549. The same molecule showed an inhibition in assay [2] of 75.9%.
For the molecule `COc1cc2c(Oc3ccc(NC(=O)C4(C(=O)Nc5ccc(F)cc5)CC4)cc3F)ccnc2cc1OCCCN1CCOCC1` [FORETINIB], the IC50 with MCF7 was 560 nM; in the assay on A549, 910 nM. The inhibition at Histone deacetylase 1 [1] amounted to 38.6%.
Consider `COc1cc2c(Oc3ccc(NC(=O)Nc4ccc(Cl)c(C(F)(F)F)c4)cc3)ccnc2cc1OCCCCCCC(=O)NO`, for which the IC50 in the assay on MCF7 stood at 5150 nM; in the assay with A549, 5020 nM. Besides, the inhibition was determined as 40.9% on Histone deacetylase 1 [1] and 94.8% in assay [2].
